The results in this text go back to ChEMBL document CHEMBL4007492, “Discovery of an Acrylic Acid Based Tetrahydroisoquinoline as an Orally Bioavailable Selective Estrogen Receptor Degrader for ERα+ Breast Cancer” (J Med Chem, 2017).

For series [1], the system named is Plasma. Kind of series: Metabolic stability of the compound in Sprague Dawley rat plasma assessed as compound racemization rate at 5 uM after 4 hrs by UPLC analysis. In kind it is ADME, cell-free.
The test system of series [2] is Plasma. Kind of series: Metabolic stability of the compound in human plasma assessed as compound racemization rate at 5 uM after 4 hrs by UPLC analysis. In kind it is ADME, cell-free.
Series [3] concerns Plasma. The series is described as follows: Metabolic stability of the compound in cynomolgus monkey plasma assessed as compound racemization rate at 5 uM after 4 hrs by UPLC analysis. In kind it is ADME, cell-free, Macaca fascicularis.
The subject of series [4] is Plasma. Kind of series: Metabolic stability of the compound in Beagle dog plasma assessed as compound racemization rate at 5 uM after 4 hrs by UPLC analysis. Format: ADME, cell-free, Canis lupus familiaris.
The test system of series [5] is Plasma. The series is described as follows: Metabolic stability of the compound in C57BL/6 mouse plasma assessed as compound racemization rate at 5 uM after 4 hrs by UPLC analysis. In kind it is ADME, cell-free.
Series [6] in a line: Stability of the compound in aqueous buffer assessed as compound racemization rate at 5 uM at pH 6.8 after 4 hrs by UPLC analysis. Format: physicochemical. To be noted: pH 6.8, 4 h.
Series [7] can be described thus: Stability of the compound in aqueous buffer assessed as compound racemization rate at 5 uM at pH 7.4 after 4 hrs by UPLC analysis. In kind it is physicochemical. To be noted: pH 7.4, 4 h.
Series [8] in a line: Stability of the compound in methanol at room temperature assessed as compound racemization rate at 5 uM at pH 6.8 after 1 hr by UPLC analysis. To be noted: pH 6.8, 1 h. In kind it is physicochemical.
For series [9] the following is noted: pampa, 4 h, 5 µM.
The nature of another series: physchem. To be noted: buffer, pH 6.8.
Series [10] in a line: Oral bioavailability in Sprague-Dawley rat at 3 mg/kg administered as solution measured up to 7 hrs by LC/MS/MS analysis. Format: ADME, organism-based. To be noted: in vivo.
The test system of series [11] is Rattus norvegicus. The series is described as follows: Dose normalized Cmax in Sprague-Dawley rat at 3 mg/kg, po administered as solution measured up to 7 hrs by LC/MS/MS analysis. Format: ADME, organism-based. To be noted: in vivo.
The nature of series [12]: Tmax in Sprague-Dawley rat at 3 mg/kg, po administered as solution measured up to 7 hrs by LC/MS/MS analysis. In kind it is ADME, organism-based. As to conditions: in vivo.
Series [13] relates to Rattus norvegicus. The series is described as follows: Dose normalized AUC (0 to t) in Sprague-Dawley rat at 3 mg/kg, po administered as solution measured up to 7 hrs by LC/MS/MS analysis. In kind it is ADME, organism-based. As to conditions: in vivo.
The test system of series [14] is Rattus norvegicus. Kind of series: Dose normalized AUC (0 to t) in Sprague-Dawley rat at 1 mg/kg, iv administered as solution measured up to 7 hrs by LC/MS/MS analysis. In kind it is ADME, organism-based. To be noted: in vivo.
Series [15] can be described thus: Clearance in Sprague-Dawley rat at 3 mg/kg, po administered as solution measured up to 7 hrs by LC/MS/MS analysis. In kind it is ADME, organism-based. As to conditions: in vivo.
Series [16] in a line: Elimination half life in Sprague-Dawley rat at 1 mg/kg, iv or 3 mg/kg, po administered as solution measured up to 7 hrs by LC/MS/MS analysis. In kind it is ADME, organism-based. As to conditions: in vivo, read-out: beta t1/2 (converted).
In series [17] the test system is Rattus norvegicus. The series is described as follows: Dose normalized Cmax in Sprague-Dawley rat at 30 mg/kg, po administered as suspension measured up to 7 hrs by LC/MS/MS analysis. In kind it is ADME, organism-based. As to conditions: in vivo.
Series [18] in a line: Tmax in Sprague-Dawley rat at 30 mg/kg, po administered as suspension measured up to 7 hrs by LC/MS/MS analysis. In kind it is ADME, organism-based. As to conditions: in vivo.
The test system of series [19] is Rattus norvegicus. Kind of series: Dose normalized AUC (0 to t) in Sprague-Dawley rat at 30 mg/kg, po administered as suspension measured up to 7 hrs by LC/MS/MS analysis. In kind it is ADME, organism-based. To be noted: in vivo.
Series [20] concerns Rattus norvegicus. The series is described as follows: Dose normalized Cmax in Sprague-Dawley rat at 100 mg/kg, po administered as suspension measured up to 7 hrs by LC/MS/MS analysis. In kind it is ADME, organism-based. To be noted: in vivo.
Series [21] in a line: Tmax in Sprague-Dawley rat at 100 mg/kg, po administered as suspension measured up to 7 hrs by LC/MS/MS analysis. Format: ADME, organism-based. As to conditions: in vivo.
In series [22] the test system is Rattus norvegicus. The series is described as follows: Dose normalized AUC (0 to t) in Sprague-Dawley rat at 100 mg/kg, po administered as suspension measured up to 7 hrs by LC/MS/MS analysis. In kind it is ADME, organism-based. As to conditions: in vivo.
The test system of series [23] is Rattus norvegicus. The series is described as follows: Dose normalized Cmax in Sprague-Dawley rat at 3 mg/kg, po administered as suspension measured up to 7 hrs by LC/MS/MS analysis. To be noted: in vivo. In kind it is ADME, organism-based.
Series [24] in a line: Tmax in Sprague-Dawley rat at 3 mg/kg, po administered as suspension measured up to 7 hrs by LC/MS/MS analysis. Format: ADME, organism-based. To be noted: in vivo.
Series [25] relates to Rattus norvegicus. The series is described as follows: Dose normalized AUC (0 to t) in Sprague-Dawley rat at 3 mg/kg, po administered as suspension measured up to 7 hrs by LC/MS/MS analysis. Format: ADME, organism-based. To be noted: in vivo.
A short description of series [26]: Oral bioavailability in Beagle dog at 10 mg/kg administered as solution measured up to 7 hrs by LC/MS/MS analysis. Format: ADME, organism-based, Canis lupus familiaris. To be noted: in vivo.
Series [27] relates to Canis familiaris. Kind of series: Dose normalized Cmax in Beagle dog at 10 mg/kg, po administered as solution measured up to 7 hrs by LC/MS/MS analysis. To be noted: in vivo. In kind it is ADME, organism-based, Canis lupus familiaris.
The test system of series [28] is Canis familiaris. The series is described as follows: Dose normalized AUC (0 to t) in Beagle dog at 10 mg/kg, po administered as solution measured up to 7 hrs by LC/MS/MS analysis. Format: ADME, organism-based, Canis lupus familiaris. As to conditions: in vivo.
For series [29], the system named is Canis familiaris. The series is described as follows: Dose normalized AUC (0 to t) in Beagle dog at 0.3 mg/kg, iv administered as solution measured up to 7 hrs by LC/MS/MS analysis. In kind it is ADME, organism-based, Canis lupus familiaris. As to conditions: in vivo.
The nature of series [30]: Tmax in Beagle dog at 10 mg/kg, po administered as solution measured up to 7 hrs by LC/MS/MS analysis. Format: ADME, organism-based, Canis lupus familiaris. To be noted: in vivo.
Series [31] in a line: Clearance in Beagle dog at 10 mg/kg, po administered as solution measured up to 7 hrs by LC/MS/MS analysis. In kind it is ADME, organism-based, Canis lupus familiaris. As to conditions: in vivo.
Series [32] can be described thus: Elimination half life in Beagle dog at 0.3 mg/kg, iv or 10 mg/kg, po administered as solution measured up to 7 hrs by LC/MS/MS analysis. In kind it is ADME, organism-based, Canis lupus familiaris. As to conditions: in vivo, read-out: beta t1/2 (converted).
The subject of series [33] is Rattus norvegicus. Kind of series: Clearance in Sprague-Dawley rat at 3 mg/kg, po administered as solution measured up to 7 hrs by LC/MS/MS analysis relative to hepatic blood flow. In kind it is ADME, organism-based. To be noted: in vivo.
The test system of series [34] is Canis familiaris. The series is described as follows: Clearance in Beagle dog at 10 mg/kg, po administered as solution measured up to 7 hrs by LC/MS/MS analysis relative to hepatic blood flow. Format: ADME, organism-based, Canis lupus familiaris. To be noted: in vivo.
The species named for series [35] is Mus musculus. To be noted: in vivo, po, 3 mg/kg, 7 h.
The species entered for series [36] is Mus musculus. As to conditions: in vivo, po, 3 mg/kg.
Series [37] is filed under the species Mus musculus. As to conditions: in vivo, iv, 1 mg/kg.
A short description of series [38]: in vivo. As to conditions: C57BL/6, mouse, po, 3 mg/kg.
Series [39] can be described thus: in vivo. As to conditions: C57BL/6, mouse, iv, 1 mg/kg.
Series [40] in a line: in vivo. As to conditions: C57BL/6, mouse.

The structures appear in SMILES notation. Values after ≈ are worked out from the molar mass of the structure shown.

On to `CC(C)c1ccc(N2CCc3cc(O)ccc3[C@@]2(C)c2ccc(/C=C/C(=O)O)cc2)cc1`, for which the Drug metabolism result (in the series with Plasma [1]; in the series on Plasma [2]; with Plasma [3]; in the series with Plasma [4]; in the series on Plasma [5]; in series [6]) was “Metabolite_Detected” in each case. Moreover, the Drug metabolism result in [7] and in series [8] was “Metabolite_Detected” throughout.

Consider `CC1(c2ccc(/C=C/C(=O)NCC(F)F)cc2)c2ccc(O)cc2CCN1c1ccc(F)cc1` (stereo not drawn), for which, in [9], the “log(permeability)” value is recorded as -4.2. In “physchem”, the solubility at 16 h is below 5 µM.

With `CC(C)c1ccc(N2CCc3cc(O)ccc3[C@]2(C)c2ccc(/C=C/C(=O)O)cc2)cc1`, the Drug metabolism entry (in the series with Plasma [1]; in the series on Plasma [2]; with Plasma [3]; in the series with Plasma [4]; with Plasma [5]; in series [6]) was “Metabolite_Detected” each time. The Drug metabolism entry in series [7] and in [8] was “Metabolite_Detected” each time.

In the case of `CC1(c2ccc(/C=C/C(=O)O)cc2)c2ccc(O)cc2CCN1c1cccc(F)c1` (stereo not drawn), in [9], the “log(permeability)” value was -4.3. Moreover, the concentration in solution in “physchem” (solubility at 16 h) came to 561 µM (≈ 226 µg/mL).

For the compound `CC(C)c1ccc(N2CCc3cc(O)ccc3C2(C)c2ccc(/C=C/C(=O)O)cc2)cc1` (stereo not drawn), the bioavailability in series [10] was determined as 60%; in series [26] it was 56%. The Cmax/dose in the series on Rattus norvegicus [11] turned out to be 1199 nM; in the series on Rattus norvegicus [17] it was 346 nM; in the series on Rattus norvegicus [20] it was 202 nM; in the series with Rattus norvegicus [23], 602 nM; with Canis familiaris [27] it was 1311 nM; in the series filed under Mus musculus [35], 2621 nM. For the same compound, the Tmax in [12] came out at 0.3 h; in [18], 2 h; in series [21], 1.5 h; in series [24] it was 0.3 h; in series [30] it was 1.2 h. Further, the AUCt/dose was 1586 nM·h/mg with Rattus norvegicus [13]; 2627 nM·h/mg with Rattus norvegicus [14]; 1125 nM·h/mg with Rattus norvegicus [19]; 918 nM·h/mg in the series on Rattus norvegicus [22]; 955 nM·h/mg in the series with Rattus norvegicus [25]; 7994 nM·h/mg in the series with Canis familiaris [28]. The AUCt/dose in the series with Canis familiaris [29] worked out at 14347 nM·h/mg. In addition, the CL/F was determined as 14.9 mL/min/kg in series [15] and 2.3 mL/min/kg in series [31]. Further, the half-life is 0.8 h in [16] and 5 h in series [32]. The CL was 27% in the series with Rattus norvegicus [33] and 7% with Canis familiaris [34]. Also, the “log(permeability)” value in series [9] is given as -4.1. The results for the AUC/dose in the series listed under Mus musculus [36] and in the series filed under Mus musculus [37] were 4533 nM·h/mg and 5808 nM·h/mg, respectively. The bioavailability at 7 h in the series “in vivo [38]” came to 78%. This compound also registered a clearance at 7 h in the series “in vivo [39]” of 7 mL/min/kg. This compound also had a half-life at 7 h in “in vivo [40]” of 1.1 h. The compound further showed a solubility at 16 h in “physchem” of 94 µM (≈ 40.2 µg/mL).
